Activity calls are given as the source filed them. The rule behind the calls is not given here.
Assays:
[1] = biological target: T1, Neuronal acetylcholine receptor subunit alpha-7 (Homo sapiens, UniProt P36544); test: Displacement of [3H]-MLA from human alpha7 nAChR expressed in human SH-SY5Y cells after 1.5 hrs by liquid scintillation counting; format: cell-based
[2] = biological target: T2, Neuronal acetylcholine receptor; alpha4/beta2 (Homo sapiens, UniProt P17787+P43681); test: Displacement of [3H]epibatidine from human alpha4beta2 nAChR expressed in human HEK293T cells after 1.5 hrs by liquid scintillation counting; format: cell-based; settings: HEK-293T
T2 sequence (P17787 whole entry): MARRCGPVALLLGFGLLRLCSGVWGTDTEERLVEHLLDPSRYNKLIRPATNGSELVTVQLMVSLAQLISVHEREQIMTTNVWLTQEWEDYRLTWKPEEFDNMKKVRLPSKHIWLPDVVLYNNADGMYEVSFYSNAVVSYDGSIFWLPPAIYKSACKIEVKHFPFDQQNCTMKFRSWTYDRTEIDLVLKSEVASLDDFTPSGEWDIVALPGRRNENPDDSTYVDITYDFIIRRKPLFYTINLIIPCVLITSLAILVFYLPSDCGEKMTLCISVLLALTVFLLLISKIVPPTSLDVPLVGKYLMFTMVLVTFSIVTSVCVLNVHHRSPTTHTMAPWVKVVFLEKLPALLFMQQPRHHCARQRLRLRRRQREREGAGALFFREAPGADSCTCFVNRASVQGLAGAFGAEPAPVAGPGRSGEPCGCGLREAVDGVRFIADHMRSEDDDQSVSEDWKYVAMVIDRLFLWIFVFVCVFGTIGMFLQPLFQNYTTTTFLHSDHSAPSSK
T2 sequence (P43681 whole entry): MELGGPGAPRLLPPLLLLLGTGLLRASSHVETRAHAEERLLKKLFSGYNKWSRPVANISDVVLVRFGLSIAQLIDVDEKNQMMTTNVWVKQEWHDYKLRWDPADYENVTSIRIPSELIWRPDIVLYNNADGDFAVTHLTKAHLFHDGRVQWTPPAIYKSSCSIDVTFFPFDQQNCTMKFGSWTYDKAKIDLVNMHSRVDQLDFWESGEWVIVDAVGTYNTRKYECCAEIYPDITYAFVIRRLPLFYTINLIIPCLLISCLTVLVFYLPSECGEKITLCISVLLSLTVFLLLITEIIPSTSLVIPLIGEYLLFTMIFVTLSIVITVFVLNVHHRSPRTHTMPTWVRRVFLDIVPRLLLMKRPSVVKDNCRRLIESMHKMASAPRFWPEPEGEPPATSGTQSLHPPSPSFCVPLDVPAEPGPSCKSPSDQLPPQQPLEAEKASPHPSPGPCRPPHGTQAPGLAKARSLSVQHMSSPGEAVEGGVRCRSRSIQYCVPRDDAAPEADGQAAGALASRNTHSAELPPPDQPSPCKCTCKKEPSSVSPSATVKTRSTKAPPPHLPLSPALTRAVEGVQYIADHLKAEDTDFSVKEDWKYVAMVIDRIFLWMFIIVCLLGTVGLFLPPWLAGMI

[3] = biological target: Acetylcholine-binding protein (Lymnaea stagnalis, UniProt P58154); test: Displacement of [3H]-epibatidine from histidine-tagged Lymnaea stagnalis AChBP expressed in Sf9 cells after 1.5 hrs by liquid scintillation counting
Sequence of Acetylcholine-binding protein (P58154 whole entry): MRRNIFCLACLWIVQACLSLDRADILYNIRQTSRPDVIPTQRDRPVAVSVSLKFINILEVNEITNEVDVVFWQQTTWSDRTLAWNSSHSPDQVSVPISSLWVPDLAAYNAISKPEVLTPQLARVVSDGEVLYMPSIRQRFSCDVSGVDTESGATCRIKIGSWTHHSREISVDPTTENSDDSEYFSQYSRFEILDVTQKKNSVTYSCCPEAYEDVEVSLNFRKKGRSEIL

[4] = biological target: T2, Neuronal acetylcholine receptor; alpha4/beta2; test: Antagonist activity at human alpha4beta2 nAChR expressed in Xenopus oocytes assessed as increase of acetylcholine-induced effect by electrophysiology assay; format: functional, cell-based, Oocyte
[5] = biological target: T2, Neuronal acetylcholine receptor; alpha4/beta2; test: Competitive inhibition of human alpha4beta2 nAChR expressed in Xenopus oocytes by electrophysiology assay; format: cell-based; settings: Oocyte
[6] = biological target: T1, Neuronal acetylcholine receptor subunit alpha-7; test: Antagonist activity at human alpha7 nAChR expressed in Xenopus oocytes assessed as increase of acetylcholine-induced effect by electrophysiology assay; format: functional, cell-based, Oocyte
[7] = biological target: T2, Neuronal acetylcholine receptor; alpha4/beta2; test: Antagonist activity at human alpha4beta2 nAChR low affinity site expressed in Xenopus oocytes assessed as inhibition of acetylcholine-induced effect at 10 uM by electrophysiology assay; format: functional, cell-based; settings: Oocyte
[8] = biological target: T1, Neuronal acetylcholine receptor subunit alpha-7; test: Antagonist activity at human alpha7 nAChR low affinity site expressed in Xenopus oocytes assessed as inhibition of acetylcholine-induced effect at 7 uM by electrophysiology assay; format: functional, cell-based; settings: Oocyte
[9] = Displacement of [3H]epibatidine from histidine-tagged Aplysia californica AChBP expressed in Sf9 cells after 1.5 hrs by liquid scintillation counting
[10] = biological target: T2, Neuronal acetylcholine receptor; alpha4/beta2; test: Antagonist activity at human alpha4beta2 nAChR high affinity site expressed in Xenopus oocytes assessed as inhibition of acetylcholine-induced effect at 10 uM by electrophysiology assay; format: functional, cell-based; settings: Oocyte
[11] = biological target: T1, Neuronal acetylcholine receptor subunit alpha-7; test: Competitive inhibition of human alpha7 nAChR expressed in Xenopus oocytes by electrophysiology assay; format: cell-based; settings: Oocyte
[12] = biological target: T1, Neuronal acetylcholine receptor subunit alpha-7; test: Antagonist activity at human alpha7 nAChR expressed in Xenopus oocytes assessed as acetylcholine-induced effect at 100 uM by electrophysiology assay; format: functional, cell-based; settings: Oocyte
[13] = biological target: T2, Neuronal acetylcholine receptor; alpha4/beta2; test: Antagonist activity at human alpha4beta2 nAChR expressed in Xenopus oocytes assessed as inhibition of acetylcholine-induced effect at 100 uM by electrophysiology assay; format: functional, cell-based; settings: Oocyte
[14] = biological target: T2, Neuronal acetylcholine receptor; alpha4/beta2; test: Antagonist activity at human alpha4beta2 nAChR low affinity site expressed in Xenopus oocytes assessed as inhibition of acetylcholine-induced effect at 55 uM by electrophysiology assay; format: functional, cell-based; settings: Oocyte
[15] = biological target: T2, Neuronal acetylcholine receptor; alpha4/beta2; test: Antagonist activity at human alpha4beta2 nAChR high affinity site expressed in Xenopus oocytes assessed as inhibition of acetylcholine-induced effect at 55 uM by electrophysiology assay; format: functional, cell-based; settings: Oocyte
[16] = biological target: T1, Neuronal acetylcholine receptor subunit alpha-7; test: Antagonist activity at human alpha7 nAChR low affinity site expressed in Xenopus oocytes assessed as inhibition of acetylcholine-induced effect at 10 uM by electrophysiology assay; format: functional, cell-based; settings: Oocyte
[17] = biological target: T2, Neuronal acetylcholine receptor; alpha4/beta2; test: Antagonist activity at human alpha4beta2 nAChR high affinity site expressed in Xenopus oocytes assessed as inhibition of acetylcholine-induced effect at 220 uM by electrophysiology assay; format: functional, cell-based; settings: Oocyte
[18] = biological target: T2, Neuronal acetylcholine receptor; alpha4/beta2; test: Antagonist activity at human alpha4beta2 nAChR low affinity site expressed in Xenopus oocytes assessed as inhibition of acetylcholine-induced effect at 220 uM by electrophysiology assay; format: functional, cell-based; settings: Oocyte
[19] = biological target: T1, Neuronal acetylcholine receptor subunit alpha-7; test: Antagonist activity at human alpha7 nAChR low affinity site expressed in Xenopus oocytes assessed as inhibition of acetylcholine-induced effect at 20 uM by electrophysiology assay; format: functional, cell-based; settings: Oocyte

T1 sequence (P36544 whole entry): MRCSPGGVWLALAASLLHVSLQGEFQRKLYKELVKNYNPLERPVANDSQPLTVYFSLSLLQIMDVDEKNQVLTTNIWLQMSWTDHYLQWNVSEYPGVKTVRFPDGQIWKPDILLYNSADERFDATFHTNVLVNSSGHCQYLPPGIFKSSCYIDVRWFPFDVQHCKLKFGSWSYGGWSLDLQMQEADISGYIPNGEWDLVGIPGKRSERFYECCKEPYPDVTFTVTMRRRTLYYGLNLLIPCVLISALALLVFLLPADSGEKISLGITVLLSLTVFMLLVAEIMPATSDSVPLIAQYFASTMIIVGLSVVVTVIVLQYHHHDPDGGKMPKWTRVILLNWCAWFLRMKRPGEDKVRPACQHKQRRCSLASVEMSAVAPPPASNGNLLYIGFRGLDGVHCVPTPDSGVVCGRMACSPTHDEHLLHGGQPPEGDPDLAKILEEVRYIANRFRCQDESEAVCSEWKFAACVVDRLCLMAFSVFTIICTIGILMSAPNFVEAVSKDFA

Compound	Ki [1] [µM]	Activity [2]	Ki [3] [µM]	further results
c1ccc(CN2CCN(CCCSc3cc4ccccc4[nH]3)CC2)cc1	≥ 31.6	inactive	2	–
C[N+]1(CCO)Cc2sc3ccc(Cl)cc3c2C1 (stereo not drawn)	20	inactive	1	–
CN1CC2Cc3ccccc3C1c1ccccc12 (stereo not drawn)	≥ 31.6	inactive	0.794	EC50 [4]: 10 µM
NCC(c1ccc(Cl)cc1)c1ccc(Sc2ccccc2)cc1 (stereo not drawn)	≥ 31.6	inactive	≥ 31.6	inhibition [5]: inactive; EC50 [6]: 10 µM
NCC(OCc1ccc(Cl)cc1)c1ccccc1 (stereo not drawn)	≥ 31.6	inactive	6.31	inhibition [7]: 87%; EC50 [4]: 10 µM; inhibition [8]: Active; pKi [9]: 4.9; inhibition [10]: 13%; inhibition [5]: inactive; inhibition [11]: Active
CC(C)(C)C(N)/C=C/c1ccc(Cl)cc1Cl (stereo not drawn)	≥ 31.6	inactive	12.6	–
CC1CCN(CCc2cc3ccccc3[nH]2)CC1	≥ 31.6	inactive	10	EC50 [6]: 10 µM
c1ccc2c(c1)CC1CNC2c2ccccc21 (stereo not drawn)	≥ 31.6	inactive	12.6	EC50 [4]: 10 µM
CC(Cc1ccccc1)NC1CN2CCC1CC2 (stereo not drawn)	≥ 31.6	inactive	3.16	–
CSc1[nH]c2ccccc2c1CN1CCCCC1	3.98	inactive	1.58	–
c1ccc2c(c1)CCc1ccccc1C2NC12CC3CC(CC(C3)C1)C2	≥ 31.6	inactive	≥ 31.6	inhibition [12]: inactive; inhibition [13]: inactive
Cc1ccc(C(c2ccc(C)cc2)N(C)C)cc1	≥ 31.6	inactive	≥ 31.6	EC50 [6]: 10 µM
O=C1CN(Cc2ccccc2)Cc2ccsc21	≥ 31.6	inactive	≥ 31.6	inhibition [12]: inactive; inhibition [13]: inactive
OC(COCc1ccc(Cl)cc1)CN1CCc2ccccc2C1 (stereo not drawn)	≥ 31.6	inactive	1.58	–
O=C1COc2ccccc2N1CCCCN1CCc2ccccc2C1	≥ 31.6	inactive	0.501	–
c1ccc(Sc2ccccc2CN2CCCC2)cc1	15.8	inactive	0.2	–
CC(C)(C)c1ccc(C(CN)c2ccccc2)cc1 (stereo not drawn)	≥ 31.6	inactive	≥ 31.6	–
c1ccc(C2CCN(CCc3nc4ccccc4[nH]3)CC2)cc1	≥ 31.6	inactive	2.51	EC50 [6]: 10 µM

Compound	Ki [1] [µM]	Activity [2]	Ki [3] [µM]	further results
CC1CC2(CCCCC2)NCc2ccccc21 (stereo not drawn)	≥ 31.6	inactive	0.631	–
CN1CCC(c2noc3ccccc23)CC1	≥ 31.6	inactive	12.6	–
CN1CCN(Cc2ccccc2Sc2ccccc2)CC1	20	inactive	1.58	–
C=CC1CN2CCC1CC2c1[nH]c2ccccc2c1CCO (stereo not drawn)	≥ 31.6	inactive	0.398	–
CCN(CC)Cc1csc2ccc(Cl)cc12	≥ 31.6	inactive	3.98	–
ClC1(CNc2ccccc2)CCN(Cc2ccccc2)CC1	≥ 31.6	inactive	1.58	–
CC1(C)C=C(c2cc(Br)c(C3=CC(C)(C)NC(C)(C)C3)s2)CC(C)(C)N1	≥ 31.6	inactive	0.398	–
c1ccc2c(CN3CCCCC3)csc2c1	15.8	inactive	1	–
CC1CC[N+]2(C)CCc3c([nH]c4ccccc34)C2C1 (stereo not drawn)	≥ 31.6	inactive	0.631	–
c1ccc(C2CCN(CCc3cc4ccccc4[nH]3)CC2)cc1	≥ 31.6	inactive	1	inhibition [14]: 75%; pKi [9]: 5.3; inhibition [5]: inactive; EC50 [6]: 10 µM; inhibition [15]: 25%; inhibition [16]: Active; inhibition [11]: Active
CC1NCCOC1c1ccc(Cl)cc1 (stereo not drawn)	≥ 31.6	inactive	12.6	inhibition [17]: 19%; inhibition [18]: 81%; EC50 [6]: 10 µM; inhibition [19]: Active
c1ccc2c3c([nH]c2c1)C1CCCN1CC3 (stereo not drawn)	≥ 31.6	inactive	1.26	–
Cc1ccccc1C(OCCN1CCCCC1)c1ccccc1 (stereo not drawn)	20	inactive	0.316	–
NCc1ccsc1C(O)c1ccccc1 (stereo not drawn)	≥ 31.6	inactive	25.1	–
CC(=O)OCC[N+](C)(C)C [ACETYLCHOLINE]	–	–	6.31	pKi [9]: 4.3
NCC(OCc1ccc(Cl)cc1Cl)c1ccccc1 (stereo not drawn)	≥ 31.6	inactive	5.01	EC50 [4]: 10 µM
NCC(c1ccccc1)c1ccc(-c2ccccc2)cc1 (stereo not drawn)	≥ 31.6	inactive	12.6	EC50 [4]: 10 µM
Cc1ccc(C(OCC2CCC[N+](C)(C)C2)c2ccccc2)cc1 (stereo not drawn)	10	inactive	0.501	–
